SMILES strings stand for the structures. Where only a bound is given, the exact number is not on record here.

One assay deals with Hepatitis C replicon in Huh-7 cells. Put plainly: HCV replicon assay (inhibition of HCV replicon replication, NPT ELISA readout). It counts as cell-based. Conditions: Hepatitis C virus, 72 h; Huh-7 HCV replicon-containing cells, three days incubation; read-out: Activity (EC50 class in an HCV replicon assay). The protocol:
Compounds claimed herein are tested for the ability to inhibit viral replication of the Hepatitis C replicon in cultured cells in which the HCV replicon construct has been incorporated. The HCV replicon system was described by Bartenschlager, et. al (Science, 285, pp. 110-113 (1999)). The replicon system is predictive of in vivo anti-HCV activity; compounds that are active in humans uniformly evidence activity in the replicon assay.
In this assay HCV replicon containing cells are treated with different concentrations of the test compound to ascertain the ability of the test compound to suppress replication of the HCV replicon. As a positive control, HCV replicon-containing cells are treated with different concentrations of interferon alpha, a known inhibitor of HCV replication. The replicon assay system includes Neomycin Phosphotransferase (NPT) as a component of the replicon itself in order to detect the transcription of replicon gene products in the host cell. Cells in which the HCV replicon is actively replicating have high levels of NPT; the level of NPT is proportional to HCV replication. […] The NPT level of each sample is measured using a captured ELISA.
A protocol for testing compounds for the ability to inhibit viral replication of the Hepatitis C replicon cultured cells in which the replicon construct has been incorporated, follows.
The HCV replicon contains, 5′-3′, the HCV-IRES, the neomycin phosphotransferase (neo) gene, the IRES of encephalomyocarditis virus, which directs translation of HCV sequences NS3 to NS5B, and the 3′-NTR. The sequence of the HCV replicon has been deposited in GenBank (Accession no. AJ242652).
The replicon is transfected into Huh-7 cells using standard methods such as electroporation.
The equipment and materials include, but are not limited to, Huh-7 HCV replicon-containing cells, maintenance media (DMEM (Dulbecco's modified Eagle media) supplemented with 10% FBS, L-glutamine, non-essential amino acids, penicillin (100 units/ml), streptomycin (100 micrograms/ml), and 500 micrograms/ml of Geneticin (G418), screening media (DMEM supplemented with 10% FBS, L-glutamine, non-essential amino acids, penicillin (100 units/ml) and streptomycin (100 micrograms/ml)), 96 well tissue culture plates (flat bottom), 96 well plates (U bottom for drug dilution), Interferon alpha for positive control, fixation reagent (such as methanol: acetone), primary antibody (rabbit anti-NPTII), secondary antibody: Eu-N1 1, and enhancement solution.
The cells are then seeded onto 96-well plates at a density of 6000-7500 cells/100 microliters/ well (6-7.5×10^5 cells/10 ml/plate). The plates are then incubated at 37° C. in a 5% CO2 incubator.
HCV replicon-containing cells are rinsed with once PBS once; 2 mls of trypsin are then added. Cells are incubated at 37° C. in a 5% CO2 incubator for 3-5 minutes. 10 mls of complete medium is added to stop the reaction. Cells are blown gently, put into a 15 ml tube, and spun at 1200 rpm for four minutes. The trypsin/medium solution is removed and 5 mls of medium (500 ml DMEM (high glucose)) from BRL catalog #12430-054; 50 mls 10% FBS, 5% Geneticin G418 (50 mg/ml, BRL catalog #10131-035), 5 ml MEM non-essential amino acids (100× BRL #11140-050) and 5 ml pen-strep (BRL #15140-148) is added. The cells and media are mixed carefully
Cells are plated with screening medium (500 ml DMEM (BRL #21063-029), 50 ml FBS (BRL #10082-147) and 5 ml MEM non-essential amino acid (BRL #11140-050) at 6000-7500 fcells/100 μl/well of 96 well plate (6-7.5×10^5 cells/10 ml/plate). Plates are placed into 37° C. 5% CO2 incubator overnight.
The following morning, drugs (test compounds or interferon alpha) are diluted in 96 well U bottom plates with media or DMSO/media, depending on the final concentration chosen for screening. Generally for 6 concentrations of each test compounds ranging from 10 micromolar to 0.03 micromolar are applied. […]
For `C=CC1CC1(NC(=O)N1C[C@@H](OC(=O)N2CCCCC2)C[C@H]1C(=O)N[C@H](C(=O)OC(C)(C)C)C(C)(C)C)C(=O)NS(=O)(=O)C1CC1` (some centres unmarked) [Compound 47], the half-maximal effective concentration (EC50) (usually the concentration at which the effect is half-maximal) was under 10 µM.

Turning to `CCCC(NC(=O)N1C[C@@H](Oc2cc(-c3ccccc3)nc3cc(OC)ccc23)C[C@H]1C(=O)N[C@H](C(=O)N[C@H](C(=O)OC)C1CCCCC1)C(C)(C)C)C(=O)C(=O)NC1CC1` (some centres unmarked) [Compound 41], the EC50 is under 10 µM. As for `CCCC(NC(=O)N1C[C@@H](OC(=O)N2CCCCC2)C[C@H]1C(=O)N[C@H](C(=O)OC(C)(C)C)C(C)(C)C)C(=O)C(=O)NC1CC1` (some centres unmarked) [Compound 44], the EC50 was under 10 µM. The same measure, in the same setting: the value for `CCCC(NC(=O)N1C[C@@H](OC(=O)N2CCc3ccccc3C2)C[C@H]1C(=O)N[C@H](C(=O)OC(C)(C)C)C(C)(C)C)C(=O)C(=O)NC1CC1` (some centres unmarked) [Compound 43] was 10 to 100 µM. On the same count and under the same terms, next, `C=CC1CC1(NC(=O)N1C[C@@H](OC(=O)N2CCCCC2)C[C@H]1C(=O)N[C@H](C(=O)OC(C)(C)C)C(C)(C)C)C(=O)O` (some centres unmarked) [Compound 46]: 10 to 100 µM.

Consider `C=CC1CC1(NC(=O)N1C[C@@H](Oc2cc(-c3ccccc3)nc3cc(OC)ccc23)C[C@H]1C(=O)N[C@H](C(=O)N[C@H](C(=O)NC)C1CCCCC1)C(C)(C)C)C(=O)NS(=O)(=O)C1CC1` (some centres unmarked) [Compound 48], for which the EC50 was under 10 µM. Still for that read-out and setting: the value for `C=CC1CC1(NC(=O)N1C[C@@H](OC(=O)N2CCCCC2)C[C@H]1C(=O)N[C@H](C(=O)OC(C)(C)C)C(C)(C)C)C(=O)OCC` (some centres unmarked) [Compound 45] was under 10 µM; that for `C=CC1CC1(NC(=O)N1C[C@@H](Oc2cc(-c3ccccc3)nc3cc(OC)ccc23)C[C@H]1C(=O)NC(C(=O)N[C@H](C(=O)NC)C1CCCCC1)C(C)(C)C)C(=O)O` (some centres unmarked) [Compound 42] was over 100 µM.

The assay is the same for the next values; noted with them: Hepatitis C virus, 72 h; Huh-7 HCV replicon-containing cells, three days incubation; read-out: EC50 in HCV replicon assay.
`CNC(=O)[C@@H](NC(=O)[C@@H]1CCCCC/C=C\CC(C(=O)C(=O)NC2CC2)NC(=O)N2C[C@@H](OC(=O)N3CCc4ccccc4C3)C[C@@H]2C(=O)N1)C1CCCCC1` (some centres unmarked) [Compound 39]: the EC50 is at most 10 µM. Regarding `CCCC(NC(=O)N1C[C@@H](OC(=O)N2CCc3ccccc3C2)C[C@H]1C(=O)N[C@H](C(=O)N[C@H](C(=O)OC)C1CCCCC1)C(C)(C)C)C(=O)C(=O)NC1CC1` (stereo partly drawn) [Compound 11, (3S,5S)-5-((S)-1-((S)-1-Cyclohexyl-2-Methoxy-2-Oxoethylamino)-3,3-Dimethyl-1-Oxobutan-2-Ylcarbamoyl)-1-(1-(Cyclopropylamino)-1,2-Dioxohexan-3-Ylcarbamoyl)Pyrrolidin-3-yl 3,4-Dihydroisoquinoline-2(1H)-Carboxylate], the EC50 was at most 10 µM.

Regarding `CNC(=O)[C@@H](NC(=O)[C@@H]1CCCCC/C=C\C2CC2(C(=O)O)NC(=O)N2C[C@@H](OC(=O)N3CCc4ccccc4C3)C[C@@H]2C(=O)N1)C1CCCCC1` (some centres unmarked) [Compound 40], the EC50 is at most 10 µM. On to `C=CC1CC1(NC(=O)N1C[C@@H](OC(=O)N2CCc3ccccc3C2)C[C@@H]1C(=O)N[C@H](C(=O)N[C@H](C(=O)NC)C(CC)CC)C(C)(C)C)C(=O)O` (stereo partly drawn) [Compound 38, 1-((2R,4S)-2-((S)-1-((S)-3-Ethyl-1-(Methylamino)-1-Oxopentan-2-Ylamino)-3,3-Dimethyl-1-Oxobutan-2-Ylcarbamoyl)-4-(1,2,3,4-Tetrahydroisoquinoline-2-Carbonyloxy)Pyrrolidine-1-Carboxamido)-2-Vinylcyclopropanecarboxylic Acid], for which the EC50 was under 50 µM.

With `C=CC1CC1(NC(=O)N1C[C@@H](OC(=O)N2CCc3ccccc3C2)C[C@H]1C(=O)N[C@H](C(=O)N[C@H](C(=O)NC)C1CCCCC1)C(C)(C)C)C(=O)O` (stereo partly drawn) [Compound 33, 1-((2S,4S)-2-((S)-1-((S)-1-Cyclohexyl-2-(Methylamino)-2-Oxoethylamino)-3,3-Dimethyl-1-Oxobutan-2-Ylcarbamoyl)-4-(1,2,3,4-Tetrahydroisoquinoline-2-Carbonyloxy)Pyrrolidine-1-Carboxamido)-2-Vinylcyclopropanecarboxylic Acid], the EC50 was under 50 µM. Consider `CCCC(NC(=O)N1C[C@@H](OC(=O)N2CCc3ccccc3C2)C[C@H]1C(=O)N[C@H](C(=O)N[C@H](C(=O)NC)C1CCCCC1)C(C)(C)C)C(=O)C(=O)NC1CC1` (stereo partly drawn) [Compound 16, (3S,5S)-5-((S)-1-((S)-1-Cyclohexyl-2-(Methylamino)-2-Oxoethylamino)-3,3-Dimethyl-1-Oxobutan-2-Ylcarbamoyl)-1-(1-(Cyclopropylamino)-1,2-Dioxohexan-3-Ylcarbamoyl)Pyrrolidin-3-Yl 3,4Dihydroisoquinoline-2(1H)-Carboxylate], for which the EC50 was under 50 µM.

These data come from patent US8163693B2, “Urea-containing peptides as inhibitors of viral replication” (Achillion Pharmaceuticals, Inc., priority 2007, dated 2012).
